Assays:
[1] = 225 mg per day enteric-coated ATP for 15 days; cited from earlier work
[2] = Dynavision D2 Mode B (reactive) visuomotor reaction time task with cognitive stressor before and after a 3-minute all-out cycling test (3 MT); assay type: in vivo, human
Procedure: (§1) This study followed a double-blind, randomized cross-over design. Participants were randomized to either PeakATP or Placebo and consumed their assigned supplement for a period of 14-days. Following supplementation, participants reported back to the lab within 24-hours for the first of two experimental trials, which occurred in a randomized, counterbalanced cross-over fashion. During experimental trial 1 (T1), participants ingested an acute dose of their assigned supplement 30 minutes before completing pre-testing assessments (Dynavision D2) followed by a 3-minute all-out high-intensity effort (3 MT) on a cycle ergometer. […]
(§2) A convenience sample of healthy, recreationally active individuals were recruited. […] To be included in this study, participants were required to be healthy and ready for activity as determined by physical activity readiness questionnaire (Par-Q+) and Medical History questionnaire (MHQ), be classified as recreationally active (≥150 minutes exercise per week) and not be taking and be willing to abstain from creatine or beta-alanine supplementation or be willing to complete a 4-week wash-out period prior to enrolling if taking creatine or beta-alanine and be willing to abstain from supplementing with either for the duration of the study. […]
(§3) Reaction time was assessed using the Dynavision D2 visuomotor training device. […]

[3] = Dynavision D2 Mode A (proactive) visuomotor reaction time task before and after a 3-minute all-out cycling test (3 MT); assay type: in vivo, human; conditions: at 60 P; p=0.028
Procedure: as §1, §2, §3

[4] = 400 mg per day ATP for 15 days; cited from earlier work

SMILES: Nc1ncnc2c1ncn2[C@@H]1O[C@H](COP(=O)(O)OP(=O)(O)OP(=O)(O)O)[C@@H](O)[C@H]1O [ATP, adenosine-5′-triphosphate]
- total bench press lifting volume and within-group set-one repetitions to failure [1]: increased
- Mode B avgRT compared to PRE ([2]; at IP (p=0.015) and 60 P (p=0.001)): significantly faster
- Mode B avgRT compared to placebo ([2]; at any time point, p's>0.05): not significantly different
- Mode A number of hits compared to placebo [3]: significantly greater
- minimum peak torque in set two of a knee extensor bout [4]: increased
